Results from the supplement of paper PMC10307832.

Columns and labels:
Assay in all cases: relative viability (nuclei count vs DMSO), 5 days (fraction); higher = more cells survive
[1] = compound: Cc1ccc2nc(NCCN)c3ncc(C)n3c2c1 + CC(=O)Nc1cccc(-n2c(=O)n(C3CC3)c(=O)c3c(Nc4ccc(I)cc4F)n(C)c(=O)c(C)c32)c1 [Trametinib] (partner 0.02 µM)
How it was run: (§1)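 Dosing by pin tool came one day after lung cancer cell lines were seeded in 1536-well plates, using either one drug or a fixed anchor-drug dose plus five library-drug doses (not always all listed) in √10 steps. After 5 days, nuclei were counted on 4× images. Relative viability is treated-well nuclei count divided by vehicle-well nuclei count, and values are medians of duplicate plates.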

[2] = compound: Cc1ccc2nc(NCCN)c3ncc(C)n3c2c1 + C[C@@H](Oc1cc(-c2cnn(C3CCNCC3)c2)cnc1N)c1c(Cl)ccc(F)c1Cl [Crizotinib] (partner 1 µM)
How it was run: as §1

[3] = compound: O=C(/C=C/c1ccccc1)NC(NC(=S)Nc1cccc2cccnc12)C(Cl)(Cl)Cl [Salubrinal] + Nc1nc2[nH]cc(CCc3ccc(C(=O)N[C@@H](CCC(=O)O)C(=O)O)cc3)c2c(=O)[nH]1 [Pemetrexed] (partner 0.2 µM)
How it was run: as §1

[4] = compound: O=C(/C=C/c1ccccc1)NC(NC(=S)Nc1cccc2cccnc12)C(Cl)(Cl)Cl [Salubrinal] + CC(C)C[C@H](NC(=O)[C@H](Cc1ccccc1)NC(=O)c1cnccn1)B(O)O [Bortezomib] (partner 0.002 µM)
How it was run: as §1

Cell Line: UMC-11
- relative viability ([1]; first compound 0.04 µM): 0.707
- relative viability ([1]; first compound 0.1265 µM): 0.7
- relative viability ([1]; first compound 0.4 µM): 0.72
- relative viability ([1]; first compound 1.265 µM): 0.703
- relative viability ([1]; first compound 4 µM): 0.632
- relative viability ([2]; first compound 0.04 µM): 0.7
- relative viability ([2]; first compound 0.1265 µM): 0.57
- relative viability ([2]; first compound 0.4 µM): 0.6
- relative viability ([2]; first compound 1.265 µM): 0.646
- relative viability ([2]; first compound 4 µM): 0.481
- relative viability ([3]; first compound 0.08 µM): 0.766
- relative viability ([3]; first compound 0.253 µM): 0.675
- relative viability ([3]; first compound 0.8 µM): 0.968
- relative viability ([3]; first compound 2.53 µM): 0.729
- relative viability ([3]; first compound 8 µM): 0.726
- relative viability ([4]; first compound 0.08 µM): 0.747
- relative viability ([4]; first compound 0.253 µM): 0.462
- relative viability ([4]; first compound 0.8 µM): 1.29
- relative viability ([4]; first compound 2.53 µM): 0.904
- relative viability ([4]; first compound 8 µM): 0.575
